Experimental data published in patent US11702414B2, “Thiadiazole IRAK4 inhibitors” (Gilead Sciences, Inc., priority 2018, dated 2023).

tested on: TNFα; assay: IRAK4 Monocyte TNFα Cell Based Assay; design: species or system human; details: Homo sapiens, Monocyte, human monocytes, LPS-stimulated; compounds 1-32; read-out: EC50 TNF
Description: IRAK4 Monocyte TNFα Cell Based Assay Procedure:
The cell suspension was then plated at a density of 5,000 cells/well onto black 384 well Greiner clear bottom plates. Plates were pre-spotted with test compounds and serially diluted in DMSO where 40 nL/well were delivered using the Echo 550 acoustic liquid dispenser (Labcyte®) for a final DMSO concentration of 0.1%. Plated cells were treated with compound for 1 hour at 37° C. Cells were then stimulated with 50 pg/ml of LPS (Sigma) excluding outside columns of plate used for unstimulated cell control wells. Cells were incubated for an additional 4 hours at 37° C. Cells were then spun out of the media and 5μl of sample were taken and analyzed for total TNFα content using the TR-FRET Human TNFα detection system (CisBio). This system utilizes two labeled antibodies (cryptate and XL665) that bind to two different epitopes of the TNFα molecule and produce FRET signal proportional to the concentration of TNFα in the sample. Detection antibodies are mixed 50:50 and 5 μL were dispensed into each well. Plates were covered with clear seals and incubated at room temp overnight. […] Percent of control was calculated as follows: % Control=100×(RatioSample−Ratio0% Stimulation)/(Ratio100% Stimulation−Ratio0% Stimulation) where unstimulated cells (0% stimulation) were the negative control and stimulated cells (100% stimulation) were used as the positive control.

EC50 [nM] | Compound
6 | COC(=O)NC[C@H]1C[C@H](Nc2cc(-c3ccc4cc(C#N)cnn34)ncc2-c2nnc([C@H]3CC[C@H](NC(C)=O)CC3)s2)C1 [Example 23, methyl (((1R,3r)-3-((5-(5-((1r,4R)-4-acetamidocyclohexyl)-1,3,4-thiadiazol-2-yl)-2-(3-cyanopyrrolo[1,2-b]pyridazin-7-yl)pyridin-4-yl)amino)cyclobutyl)methyl)carbamate]
8 | CC(=O)N[C@H]1CC[C@H](c2nnc(-c3cnc(-c4ccc5cc(C#N)cnn45)cc3N[C@H]3CC[C@H](c4nnc(C(F)F)o4)CC3)s2)CC1 [Example 2]
10 | CC(=O)N[C@H]1CC[C@H](c2nnc(-c3cnc(-c4ccc5cc(C#N)cnn45)cc3NC3COC3)s2)CC1 [Example 21, N-((1r,4r)-4-(5-(6-(3-cyanopyrrolo[1,2-b]pyridazin-7-yl)-4-(oxetan-3-ylamino)pyridin-3-yl)-1,3,4-thiadiazol-2-yl)cyclohexyl)acetamide]
6 | CC(=O)N[C@H]1CC[C@H](c2nnc(-c3cnc(-c4ccc5cc(C#N)cnn45)cc3NCC#N)s2)CC1 [Example 20, N-((1r,4r)-4-(5-(4-((cyanomethyl)amino)-6-(3-cyanopyrrolo[1,2-b]pyridazin-7-yl)pyridin-3-yl)-1,3,4-thiadiazol-2-yl)cyclohexyl)acetamide]

same assay, conditions: Homo sapiens, Monocyte, human monocytes; second part of Table 2 (compounds 33-343); unit inferred; read-out: EC50MONO TNF HTRF

EC50 [nM] | Compound
13.8 | CC(=O)N[C@@H]1CCN(c2nnc(-c3cnc(-c4ccc5cc(C#N)cnn45)cc3NC(C)C)s2)C[C@@H]1O [Example 63, N-((3S,4R)-1-(5-(6-(3-cyanopyrrolo[1,2-b]pyridazin-7-yl)-4-(isopropylamino)pyridin-3-yl)-1,3,4-thiadiazol-2-yl)-3-hydroxypiperidin-4-yl)acetamide]

same assay, conditions: Homo sapiens, Monocyte, read-out: EC50MONO TNF HTRF

Compound | EC50 [nM]
CC(C)Nc1cc(-c2ccc3cc(C#N)cnn23)ncc1-c1nnc(N2CC3CC(C2)N3C(=O)C2CCN(C)CC2)s1 [Example 117, 7-(4-(isopropylamino)-5-(5-(6-(1-methylpiperidine-4-carbonyl)-3,6-diazabicyclo[3.1.1]heptan-3-yl)-1,3,4-thiadiazol-2-yl)pyridin-2-yl)pyrrolo[1,2-b]pyridazine-3-carbonitrile] | 11.1

same assay, conditions: human monocytes; second part of Table 2 (compounds 33-343); unit inferred; read-out: EC50MONO TNF HTRF

EC50 [nM] | Compound
11.3 | CC(C)Nc1cc(-c2ccc3cc(C#N)cnn23)ncc1-c1nnc(C23CCC(O)(CC2)CC3)s1 [Example 89, 7-(5-(5-(4-hydroxybicyclo[2.2.2]octan-l-yl)-1,3,4-thiadiazol-2-yl)-4-(isopropylamino)pyridin-2-yl)pyrrolo[1,2-b]pyridazine-3-carbonitrile]
8.8 | CC(=O)N[C@@H]1CCN(c2nnc(-c3cnc(-c4ccc5cc(C#N)cnn45)cc3NC3COC3)s2)CC1(F)F [Example 183, (R)-N-(1-(5-(6-(3-cyanopyrrolo[l,2-b]pyridazin-7-yl)-4-(oxetan-3-ylamino)pyridin-3-yl)-1,3,4-thiadiazol-2-yl)-3,3-difluoropiperidin-4-yl)acetamide]
10.8 | CC1(O)CCN(c2nnc(-c3cnc(-c4ccc5cc(C#N)cnn45)cc3NC3COC3)s2)CC1 [Example 187, 7-(5-(5-(4-hydroxy-4-methylpiperidin-1-yl)-1,3,4-thiadiazol-2-yl)-4-(oxetan-3-ylamino)pyridin-2-yl)pyirolo[1,2-b]pyridazine-3-carbonitrile]
7.6 | CC1(O)CCN(c2nnc(-c3cnc(-c4ccc5cc(C#N)cnn45)cc3NC3CCOCC3)s2)CC1 [Example 188, 7-(5-(5-(4-hydroxy-4-methylpiperidin-l-yl)-1,3,4-thiadiazol-2-yl)-4-((tetrahydro-2H-pyran-4-yl)amino)pyridin-2-yl)pyrrolo[1,2-b]pyridazine-3-carbonitrile]
26.5 | CC(C)Nc1cc(-c2ccc3cc(C#N)cnn23)ncc1-c1nnc(N2CC[C@@H](O)C(F)(F)C2)s1 [Example 162, (R)-7-(5-(5-(3,3-difluoro-4-hydroxypiperidin-l-yl)-1,3,4-thiadiazol-2-yl)-4-(isopropylamino)pyridin-2-yl)pyrrolo[1,2-b]pyridazine-3-carbonitrile]
2320 | CC(C)Nc1cc(-c2ccc3cc(C#N)cnn23)ncc1-c1nnc(C(=O)N2CC[C@H](CO)C2)s1 [Example 221, (S)-7-(5-(5-(3-(hydroxymethyl)pyrrolidine-l-carbonyl)-1,3,4-thiadiazol-2-yl)-4-(isopropylamino)pyridin-2-yl)pyrrolo[1,2-b]pyridazine-3-carbonitrile]
22.9 | CC(C)Nc1cc(-c2ccc3cc(C#N)cnn23)ncc1-c1nnc(N2CC[C@@](C)(O)[C@H](F)C2)s1 [Example 191, 7-(5-(5-((3R,$R)-3-fluoro-4-hydroxy-4-methylpiperidin-1-yl)-1,3,4-thiadiazol-2-yl)-4-(isopropylamino)pyridin-2-yl)pyrrolo[1,2-b]pyridazine-3-carbonitrile]
4.9 | C[C@H](C#N)Nc1cc(-c2ccc3cc(C#N)cnn23)ncc1-c1nnc(N2CC3CC(C2)O3)s1 [Example 178, 7-(5-(5-(6-oxa-3-azabicyclo[3.1.1]heptan-3-yl)-l,3,4-thiadiazol-2-yl)-4-(((R)-1-cyanoethyl)amino)pyridin-2-yl)pyrrolo[1,2-b]pyridazine-3-carbonitrile]
305 | CC(C)Nc1cc(-c2ccc3cc(C#N)cnn23)ncc1-c1nnc(CCN)s1 [Example 212, 7-(5-(5-(2-aminoethyl)-l,3,4-thiadiazol-2-yl)-4-(isopropylamino)pyridin-2-yl)pyrrolo[1,2-b]pyridazine-3-carbonitrile]
3.5 | C[C@]1(O)CCN(c2nnc(-c3cnc(-c4ccc5cc(C#N)cnn45)cc3NC3CCOCC3)s2)C[C@@H]1F [Example 204, 7-(5-(5-((3S,4S)-3-fluoro-4-hydroxy-4-methylpiperidin-l-yl)-1,3,4-thiadiazol-2-yl)-4-((tetrahydro-2H-pyran-4-yl)amino)pyridin-2-yl)pyrrolo[1,2-b]pyridazine-3-carbonitrile]

Compound | EC50 [nM]
C[C@H](C#N)Nc1cc(-c2ccc3cc(C#N)cnn23)ncc1-c1nnc(N2C[C@H]3CC[C@@H](C2)[C@@H]3NC(=O)C2CC2)s1 [Example 148, N-((1R,5S,8S)-3-(5-(4-(((R)-1-cyanoethyl)amino)-6-(3-cyanopyrrolo[1,2-b]pyridazin-7-yl)pyridin-3-yl)-1,3,4-thiadiazol-2-yl)-3-azabicyclo[3.2.1]octan-8-yl)cyclopropanecarboxamide] | 1.4

biological target: IRAK4 enzyme (Homo sapiens (Human), UniProt Q9NWZ3); assay: IRAK4 Biochemical Assay (TR-FRET, STK1 KinEASE); details: not given
Description: IRAK4 enzyme (Carna Biosciences, Chuo-ku, Kobe, Japan) activity was measured by detecting phosphorylated peptide substrate formation using an antibody against the phosphorylated peptide substrate. This is a time-resolved fluorescence resonance energy transfer (TR-FRET) immunoassay, based on the STK1 KinEASE Assay (Cisbio, Bedford, Mass.). The assay was designed as a simple two-step, endpoint assay (a 5 μl enzyme reaction followed by 5 μl stop and detect Solution) performed in ProxiPlate-384 Plus plates (Perkin Elmer, Waltham, Mass.). […] Compounds diluted in DMSO were spotted into 384 well plates using a Labcyte® Echo 550 Liquid Handling System prior to addition of IRAK4 enzyme and peptide substrate. Reaction solutions were delivered using a Multi-Flo (Bio-Tek Instruments). The enzyme and peptide solution was incubated with compound for 15 minutes at room temp before the reaction was initiated by the addition of ATP. The standard 5 μl reaction mixture contained 500 μM ATP, 2 μM peptide (STK1 Peptide), 0.75 nM of IRAK4 in reaction buffer (50 mM HEPES, pH 7.0, 0.02% NaN3, 0.01% BSA, 0.1 mM Orthovanadate, 5 mM MgCl2, 0.025% NP-40, 1 mM DTT). After 120 min of incubation at room temperature, 5 μl of Stop and Detect Solution (1:100 Cryptate labeled anti-phosphorylated peptide antibody solution and 125 nM Tracer in a 50 mM HEPES pH 7.0 detection buffer containing sufficient EDTA) was added. The plate was then further incubated for 60 minutes at room temperature and read on Envision 2103 Multilabeled reader (PerkinElmer) with excitation/emission/FRET emission at 340 nm/615 nm/665 nm, respectively. Fluorescence intensities at 615 nm and 665 nm emission wavelengths were expressed as a ratio (665 nm/615 nm). Percentage of inhibition was calculated as below: % Inhibition=100×(RatioSample−Ratio0% Inhibition)/(Ratio100% Inhibition−Ratio0% Inhibition)
The 0% inhibition value comes from control wells lacking inhibitor.

Chain of IRAK4 enzyme (Q9NWZ3 whole entry): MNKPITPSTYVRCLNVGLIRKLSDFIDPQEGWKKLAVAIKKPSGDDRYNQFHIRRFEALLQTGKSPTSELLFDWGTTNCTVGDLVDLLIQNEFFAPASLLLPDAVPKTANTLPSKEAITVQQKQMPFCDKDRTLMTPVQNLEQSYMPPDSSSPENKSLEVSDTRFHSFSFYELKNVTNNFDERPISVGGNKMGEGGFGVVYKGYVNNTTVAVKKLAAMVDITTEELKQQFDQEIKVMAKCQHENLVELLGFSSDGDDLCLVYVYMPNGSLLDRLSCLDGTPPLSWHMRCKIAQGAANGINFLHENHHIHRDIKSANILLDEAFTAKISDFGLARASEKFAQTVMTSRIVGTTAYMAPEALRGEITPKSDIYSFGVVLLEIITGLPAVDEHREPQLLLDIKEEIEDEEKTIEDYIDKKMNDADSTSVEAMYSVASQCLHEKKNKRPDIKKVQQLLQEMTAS

Compound | IC50 [nM]
CC(C)Nc1cc(-c2ccc3cc(C#N)cnn23)ncc1-c1nnc(-n2cnc(C3CC3)c2)s1 [Compound 326, 7-(5-(5-(4-cyclopropyl-1H-imidazol-1-yl)-1,3,4-thiadiazol-2-yl)-4-(isopropylamino)pyridin-2-yl)pyrrolo[1,2-b]pyridazine-3-carbonitrile] | 6.01
CC(=O)N[C@H]1CCN(c2nnc(-c3cnc(-c4ccc5cc(C#N)cnn45)cc3NC(C)C)s2)C[C@@H]1O [Example 64, N-((3S,4S)-1-(5-(6-(3-cyanopyrrolo[1,2-b]pyridazin-7-yl)-4-(isopropylamino)pyridin-3-yl)-1,3,4-thiadiazol-2-yl)-3-hydroxypiperidin-4-yl)acetamide] | 0.28

same assay, conditions: second part of Table 2 (compounds 33-343); unit inferred; read-out: IC50 IRAK4-HTBS

Compound | IC50 [nM]
CC1(O)CCC(c2nnc(-c3cnc(-c4ccc5cc(C#N)cnn45)cc3NC3COC3)s2)CC1 (single isomer, unassigned) [Example 206, 7-(5-(5-(4-hydroxy-4-methylcyclohexyl)-1,3,4-thiadiazol-2-yl)-4-(oxetan-3-ylamino)pyridin-2-yl)pyrrolo[1,2-b]pyridazine-3-carbonitrile] | 0.56
